Data as given in PubChem BioAssay (NCI).
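In this assay, cells in 96-well plates receive the compound at five concentrations for 48 hours. Endpoints are linearly interpolated between the surrounding concentrations. GI50 marks 50% less growth. TGI marks complete inhibition of growth.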

Legend:
Assay in all cases: NCI tumour cell line growth inhibition, 48 h
HS 578T breast = system: HS 578T breast
OVCAR-4 ovarian = system: OVCAR-4 ovarian
MCF7 breast = system: MCF7 breast
IGROV1 ovarian = system: IGROV1 ovarian
A549 NSCLC = system: A549 NSCLC
KM12 colon = system: KM12 colon
SK-MEL-28 melanoma = system: SK-MEL-28 melanoma
SF-268 CNS = system: SF-268 CNS
SK-OV-3 ovarian = system: SK-OV-3 ovarian
U251 CNS = system: U251 CNS

| Structure (SMILES) | TGI (HS 578T breast) [µM] | TGI (OVCAR-4 ovarian) [µM] | TGI (MCF7 breast) [µM] | TGI (IGROV1 ovarian) [µM] | TGI (A549 NSCLC) [µM] | TGI (KM12 colon) [µM] | TGI (SK-MEL-28 melanoma) [µM] | TGI (SF-268 CNS) [µM] | TGI (SK-OV-3 ovarian) [µM] | TGI (U251 CNS) [µM] | GI50 (HS 578T breast) [µM] | GI50 (OVCAR-4 ovarian) [µM] | GI50 (MCF7 breast) [µM] | GI50 (IGROV1 ovarian) [µM] | GI50 (A549 NSCLC) [µM] | GI50 (KM12 colon) [µM] | GI50 (SK-MEL-28 melanoma) [µM] | GI50 (SF-268 CNS) [µM] | GI50 (SK-OV-3 ovarian) [µM] | GI50 (U251 CNS) [µM] |
| --- | --- | --- | --- | --- | --- | --- | --- | --- | --- | --- | --- | --- | --- | --- | --- | --- | --- | --- | --- | --- |
| CC1C(=O)N(c2ccccc2)NC12CCCc1ccccc12 (stereo not given) | > 100 | > 100 | > 100 | > 100 | > 100 | > 100 | > 100 | > 100 | > 100 | > 100 |  |  |  |  |  |  |  |  |  |  |
| COc1cc([C@@H]2c3cc4c(cc3[C@@H](c3c(O)cc(O)c5c3O[C@H](c3ccc(O)c(O)c3)[C@@H](O)C5)[C@H]3COC(=O)[C@H]23)OCO4)cc(OC)c1OC | > 100 | 3.35 | 3.11 | > 100 | > 100 | 3.33 | > 100 | > 100 | 3.36 | 3.64 |  |  |  |  |  |  |  |  |  |  |
| Cc1ccc(OCC2OC(n3cnc4c(Cl)nc(N)nc43)CC2Oc2ccc(C)cc2)cc1 (stereo not given) | > 100 | 61.3 | > 13.3 | 61.5 | > 100 | > 100 | > 100 | > 100 | > 100 | > 100 |  |  |  |  |  |  |  |  |  |  |
| COc1cccc(CCN2CCN(CCCc3ccccc3)CC2)c1 | > 100 | > 100 | > 100 | > 100 | > 100 | > 100 | > 100 | > 100 | > 100 | > 100 |  |  |  |  |  |  |  |  |  |  |
| CN(C)c1ccc(/C(F)=C(F)/C(F)=C(F)/C(F)=C(\F)c2ccc(Br)cc2)cc1 | 52.6 | > 100 | > 100 | > 100 | > 100 | > 100 | > 100 | > 100 | > 100 | 44.7 |  |  |  |  |  |  |  |  |  |  |
| Cc1cc(-c2nc3cc(F)ccc3s2)ccc1NC(=O)[C@@H](N)CCCCN | 24.7 | 22 | 11.8 | 18.3 | 3.88 | 3.36 | 34.6 | 22.6 | 25.7 | 3.89 |  |  |  |  |  |  |  |  |  |  |
| OCC(O)C(O)C(O)C(O)c1nc2ccc(Cl)cc2[nH]1 (stereo not given) | > 100 | > 100 | > 100 | > 100 | > 100 | > 100 | > 100 | > 100 | > 100 | > 100 |  |  |  |  |  |  |  |  |  |  |
| CC(NC(=O)C(NC(=O)CNC(=O)OC(C)(C)C)C(C)C)C(=O)Oc1c(Cl)c(Cl)c(Cl)c(Cl)c1Cl (stereo not given) | 50.1 | 60.9 | 74.1 | 46.6 | 57.5 | 30.4 | 71.8 | 65.2 | 51.5 | 48.3 |  |  |  |  |  |  |  |  |  |  |
| CC(C)CNc1nc2ncnc(N)c2[nH]1 | > 100 | > 100 | > 100 | > 100 | > 100 | > 100 | > 100 | > 100 | > 100 | > 100 |  |  |  |  |  |  |  |  |  |  |
| COc1ccc2c3c1OC1C(=O)C=CC4(CC2)N(C)CCC314 (stereo not given) | 92.5 | > 100 | > 100 | > 100 | 84.1 | 43.4 | 66.1 | 91 | > 100 | 53 |  |  |  |  |  |  |  |  |  |  |
| Cc1cc(F)ccc1S(=O)(=O)Nc1cc(-c2c(O)ccc3ccccc23)c(O)c2ccccc12 | 10.2 | 6.66 | 25.6 | 8.68 | 15.5 | 4.02 | 9.74 | 14.3 | 11.6 | 15.5 | 2.6 | 2.21 | 2.42 | 2.89 | 3.76 | 1.93 | 3.12 | 3.4 | 2.37 | 3.67 |
| Cc1ccc2c(=O)cc(-c3ccc(Cl)s3)[nH]c2n1 | > 22.9 | > 100 | > 100 | > 100 | > 29.3 | > 100 | > 100 | > 81.6 | 53.3 | > 100 |  |  |  |  |  |  |  |  |  |  |
| CCCCOC(=O)C(NC(C(=O)OCCCC)c1cc(C(C)(C)C)c(O)c(C(C)(C)C)c1)c1cc(C(C)(C)C)c(O)c(C(C)(C)C)c1 (stereo not given) | > 100 | > 100 | > 100 | > 100 | > 100 | > 100 | > 100 | > 100 | > 100 | > 100 |  |  |  |  |  |  |  |  |  |  |
| ClCCCc1ccccc1C1=NCCc2ccccc21 | > 100 | > 100 | > 100 | > 100 | > 100 | > 100 | > 100 | > 100 | > 100 | > 100 |  |  |  |  |  |  |  |  |  |  |
| CC(=O)NCCC1CN(C(=O)/C=C/I)c2ccccc21 (stereo not given) | 37 | 4.45 | 2.87 | 18.7 | 33.1 | 2.67 | 18.2 | 23.5 | 27.8 | 24.2 |  |  |  |  |  |  |  |  |  |  |
| CCCCCCCC/C=C\CCCCCCC/C=C1\C[C@](/C=C/C(=O)OC)(CO)OC1=O | 4.69 | 10.9 | 14.7 | 6.29 | 17.8 | 14.2 | 3.38 | 4.4 | 19.1 | 5.92 |  |  |  |  |  |  |  |  |  |  |

| Structure (SMILES) | TGI (HS 578T breast) [µM] | TGI (OVCAR-4 ovarian) [µM] | TGI (MCF7 breast) [µM] | TGI (IGROV1 ovarian) [µM] | TGI (A549 NSCLC) [µM] | TGI (KM12 colon) [µM] | TGI (SK-MEL-28 melanoma) [µM] | TGI (SF-268 CNS) [µM] | TGI (SK-OV-3 ovarian) [µM] | TGI (U251 CNS) [µM] | GI50 (HS 578T breast) [µM] | GI50 (OVCAR-4 ovarian) [µM] | GI50 (MCF7 breast) [µM] | GI50 (IGROV1 ovarian) [µM] | GI50 (A549 NSCLC) [µM] | GI50 (KM12 colon) [µM] | GI50 (SK-MEL-28 melanoma) [µM] | GI50 (SF-268 CNS) [µM] | GI50 (SK-OV-3 ovarian) [µM] | GI50 (U251 CNS) [µM] |
| --- | --- | --- | --- | --- | --- | --- | --- | --- | --- | --- | --- | --- | --- | --- | --- | --- | --- | --- | --- | --- |
| CSCCC(N)C(=O)NCCNc1ccc(NCCNC(=O)C(N)CCSC)c2c1C(=O)c1ccccc1C2=O (stereo not given) | 6.85 | 3.71 | 4.77 | 12.2 | 3.66 | 12.8 | 3.17 | 4.55 | 10.3 | 2.44 |  |  |  |  |  |  |  |  |  |  |
| NC(=O)NNc1nc(-c2ccccc2)cs1 | > 100 | > 100 | > 100 | > 100 | > 100 | > 100 | > 100 | > 100 | > 100 | > 100 |  |  |  |  |  |  |  |  |  |  |
| COC(=O)C1(Cc2ccc3c(c2)CCC3)Cc2ccccc2C1O (stereo not given) | 48.1 | 27.8 | 49.6 | 51.7 | 49.2 | 47.6 | 33 | 41.6 | 44.2 | 31.1 |  |  |  |  |  |  |  |  |  |  |
| Cc1ccc([S@](=O)c2occc2C=O)cc1 | 36.1 | > 53.2 | 13.3 | 31.2 | 46.5 | 31.5 | 9.02 | 14.9 | 26.5 | 27.4 |  |  |  |  |  |  |  |  |  |  |
| OCCO/N=C1\C(c2c(O)[nH]c3ccccc23)=Nc2ccccc21 | > 100 | > 100 | > 100 | > 100 | > 100 | > 100 | > 100 | > 100 | > 100 | > 100 |  |  |  |  |  |  |  |  |  |  |
| C=C(C(N)=O)c1ccc([N+](=O)[O-])o1 | 77.1 | 29 | 19.8 | 23.4 | 40.3 | 34.8 | 12.7 | 37.9 | 87.9 | 34.6 |  |  |  |  |  |  |  |  |  |  |
| COC(=O)C1CCC(=S)N1C(=O)c1ccccc1 (stereo not given) | > 100 | > 100 | > 100 | > 100 | > 100 | > 100 | > 100 | > 100 | > 100 | > 100 |  |  |  |  |  |  |  |  |  |  |
| Cc1ccc(/C(O)=C/c2nc3ccccc3sc2=O)c(C)c1 | > 100 | 70.8 | > 100 | > 100 | > 100 | > 100 | > 100 | > 100 | > 100 | > 100 |  |  |  |  |  |  |  |  |  |  |
| COc1ccc(C2=Nc3cc(C)c(C)cc3NC(c3ccccc3)C2)cc1 (stereo not given) | > 100 | > 100 | > 100 | > 100 | > 100 | > 100 | > 100 | > 100 | > 100 | > 100 |  |  |  |  |  |  |  |  |  |  |
| CCN(CC)N1C(=O)[N+](CC)(CC)N=C1[O-] | > 100 | > 100 | > 100 | > 100 | > 100 | > 100 | > 100 | > 100 | > 100 | > 100 |  |  |  |  |  |  |  |  |  |  |
| OC1(c2ccccc2)CCN(Cc2c[nH]c3ccccc23)CC1 | > 100 | > 100 | > 100 | > 100 | > 100 | > 100 | 56.9 | > 100 | > 100 | > 100 |  |  |  |  |  |  |  |  |  |  |
| CC(=O)N1CC(C)(C)c2c(C)c(O)c(C)c(C)c21 | > 100 | > 100 | > 100 | > 100 | > 100 | > 100 | > 100 | > 100 | > 100 | > 100 |  |  |  |  |  |  |  |  |  |  |
| CCNC(=S)N=Nc1c(O)[nH]c2ccc([N+](=O)[O-])cc12 | > 100 | > 100 | > 100 | > 100 | > 100 | > 100 | > 100 | > 100 | > 100 | > 100 |  |  |  |  |  |  |  |  |  |  |
| CN(C)c1nc(N)nc(CS)n1 | > 100 | > 100 | > 100 | > 100 | > 100 | > 100 | > 100 | > 100 | > 100 | > 100 |  |  |  |  |  |  |  |  |  |  |
| CC1(C)N/C(=C\C=O)C(C)(C)N1O | > 100 | > 100 | > 100 | > 100 | > 100 | > 100 | > 100 | > 100 | > 100 | > 100 |  |  |  |  |  |  |  |  |  |  |
| CCCCC(=O)c1c(O)nc2sccn2c1=O | > 10 | > 10 | > 10 | > 10 | > 10 | > 10 | > 10 | > 10 | > 10 | > 10 |  |  |  |  |  |  |  |  |  |  |
